US8440637B2, “Combination treatment for the treatment of hepatitis C virus infection” (priority 2007, dated 2013)
l = locked nucleic acid (LNA); d = 2'-deoxy (DNA)

What was measured:
[1] = format: in vitro ADME; conditions: 96 h
Method: LNA oligonucleotide stability was tested in plasma from human or rats (it could also be mouse, monkey or dog plasma). In 45 μl plasma, 5 μl LNA oligonucleotide is added (at a final concentration of 20 μM). The LNA oligonucleotides are incubated in plasma for times ranging from 0 to 96 hours at 37° C.
At the indicated time the sample were snap frozen in liquid nitrogen. 2 μL (equals […]) LNA oligonucleotide in plasma was diluted by adding 15 μL of water and 3 μL 6× loading dye (Invitrogen). As marker a 10 bp ladder (Invitrogen, USA 10821-015) is used. To 1 μl ladder, 1 μl 6× loading and 4 μl water is added. The samples are mixed, heated to 65° C. for 10 min and loaded to a pre-run gel (16% acrylamide, 7 M UREA, 1×TBE, pre-run at 50 Watt for 1 h) and run at 50-60 Watt for […]. Subsequently, the gel is stained with 1× SyBR gold (molecular probes) in 1×TBE for 15 min. The bands were visualised using a phosphoimager from BioRad.
Stability of SEQ ID NO: 61 and SEQ ID NO: 61/miR-122a duplex were tested in mouse plasma at 37° C. over 96 hours. Shown in FIG. 12 is a SYBR-Gold stained PAGE.

miR-122a = miR-122a level in transfected Huh-7 cells by miR-122a specific qRT-PCR; format: cell-based, human; conditions: transfected at 1 and 100 nM, 24 hours after transfection
Method: The miR-122a expressing cell line Huh-7 was transfected with LNA anti-miR5 at 1 and 100 nM concentrations according to optimized lipofectamine 2000 (LF2000, Invitrogen) protocol (as follows).
Huh-7 cells were cultivated in Eagles MEM with 10% FBS, 2 mM Glutamax I, 1× non-essential amino acids, Gentamicin 25 μg/ml. The cells were seeded in 6-well plates (300000 cells per well), in a total vol. of 2.5 ml the day before transfection. At the day of transfection a solution containing LF2000 diluted in Optimem (Invitrogen) was prepared (1.2 ml optimem+3.75 μl LF2000 per well, final 2.5 μg LF2000/ml, final tot vol 1.5 ml).
LNA Oligonucleotides (LNA anti-miRs) were also diluted in optimem. 285 μl optimem+15 μl LNA oligonucleotide (10 μM oligonucleotide stock for final concentration 100 nM and 0.1 μM for final concentration 1 nM) Cells were washed once in optimem then the 1.2 ml optimem/LF2000 mix were added to each well. Cells were incubated 7 min at room temperature in the LF2000 mix where after the 300 μl oligonucleotide optimem solution was added. […]
miR-122a levels in the RNA samples were assessed on an ABI 7500 Fast real-time PCR instrument (Applied Biosystems, USA) using a miR-122a specific qRT-PCR kit, mirVana (Ambion, USA) and miR-122a primers (Ambion, USA). […]

| Substance | stability in mouse plasma (in words) [1] | inhibition of miR-122a (in words) (miR-122a) |
| --- | --- | --- |
| 5′-ccAttGtcAcaCtcCa-3′ (antisense CCATTGTCACACTCCA; sugars from the 5' end ddlddlddlddlddld, backbone and methylation of C not given here) [SEQ ID NO: 61] | completely stable over 96 hours |  |
| 5′-CcAttGTcaCaCtCC-3′ (antisense CCATTGTCACACTCC; sugars from the 5' end ldlddllddldldll, backbone and methylation of C not given here) [SEQ ID NO: 63] |  | more efficient in inhibiting miR-122a at 1 nM |
